Experimental findings from patent publication US10183919B2 (priority 2014, dated 2019) are described below.

Each structure is given as a SMILES string. Where a name gives a salt, the structure may show the parent alone. Read-outs that look alike come from different tables or passages of the source.

The target in test [1] is T1, Mouse MOR (Mus musculus, UniProt P42866).
T1 construct: expressed in transfected cells; host or cells: HEK-293T
Nature of the test: BRET G protein activation assay, HEK-293T cells transfected with mouse MOR. In kind it is cell-based. The text has this:
(§1) Transfection. Human or mouse MOR cDNA was transfected alongside GαoB with RLuc8 inserted at position 91 (GαoB-RLuc8), Gβ1 (β1), and Gγ2 fused to the full-length mVenus at its N terminus (mVenus-γ2) into HEK-293T cells (5×10^6 cells/plate) in 10-cm dishes using PEI (Polysciences Inc.; Warrington, Pa.) in a 1:1 ratio diluted in Opti-MEM (Life Technologies Corp.; Grand Island, N.Y.) to assay for G protein activation as described previously (Rives, M.-L. et al. J. Biol. Chem. 2012, 287, 27050-4; Negri, A.; Rives, M.-L.; Caspers, M. J. et al. J. Chem. Inf. Model. 2013, 53, 521-526). Cells were maintained in the Dulbecco's Modified Eagle Medium (high glucose #11965; Life Technologies) supplemented with 10% FBS (Premium Select, Atlanta Biologicals; Atlanta, Ga.) and 100 U/mL penicillin and 100 μg/mL streptomycin (#15140, Life Technologies). After 24 hours the media was changed, and the experiment was performed 24 hours later (48 hours after transfection).
(§2) BRET. Transfected cells were dissociated and resuspended in phosphate-buffered saline (PBS). Approximately 200,000 cells/well were added to a black-framed, white well 96-well plate (#60050; Perkin Elmer; Waltham, Mass.). The microplate was centrifuged and the cells were resuspended in PBS. Then 5 μM of the luciferase substrate coelenterazine H was added to each well for 5 minutes. Following coelenterazine H addition, ligands were added and the BRET signal was measured at 5 minutes on a PHERAstar FS plate reader. Quantification of the BRET signal required calculating the ratio of the light emitted by the energy acceptor, mVenus (510-540 nm), over the light emitted by the energy donor, RLuc8 (485 nm). […] Dose response curves were fit using three-parameter logistics equation in GraphPad Prism 6.

Test [2] concerns the target T2, Human MOR (Homo sapiens, UniProt P35372).
T2 construct: expressed in transfected cells; host or cells: HEK-293T
Description: cell-based.
Description: as §1, §2

Where [3] appears, read: BRET G protein activation, HEK-293T, mean ± SEM of independent trials, read-out: EC50 Human MOR.

T2 sequence (P35372 whole entry): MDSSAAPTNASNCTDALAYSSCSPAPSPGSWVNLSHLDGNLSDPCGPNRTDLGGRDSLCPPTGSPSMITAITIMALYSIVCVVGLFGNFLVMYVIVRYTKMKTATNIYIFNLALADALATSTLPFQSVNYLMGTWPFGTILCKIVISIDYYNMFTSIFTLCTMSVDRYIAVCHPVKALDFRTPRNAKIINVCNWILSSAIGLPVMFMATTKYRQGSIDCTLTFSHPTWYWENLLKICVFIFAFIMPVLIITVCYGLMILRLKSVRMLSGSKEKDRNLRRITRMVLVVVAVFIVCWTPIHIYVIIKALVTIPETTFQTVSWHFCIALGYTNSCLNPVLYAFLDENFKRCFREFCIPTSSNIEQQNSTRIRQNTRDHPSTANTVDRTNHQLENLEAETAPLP
T1 sequence (P42866 whole entry): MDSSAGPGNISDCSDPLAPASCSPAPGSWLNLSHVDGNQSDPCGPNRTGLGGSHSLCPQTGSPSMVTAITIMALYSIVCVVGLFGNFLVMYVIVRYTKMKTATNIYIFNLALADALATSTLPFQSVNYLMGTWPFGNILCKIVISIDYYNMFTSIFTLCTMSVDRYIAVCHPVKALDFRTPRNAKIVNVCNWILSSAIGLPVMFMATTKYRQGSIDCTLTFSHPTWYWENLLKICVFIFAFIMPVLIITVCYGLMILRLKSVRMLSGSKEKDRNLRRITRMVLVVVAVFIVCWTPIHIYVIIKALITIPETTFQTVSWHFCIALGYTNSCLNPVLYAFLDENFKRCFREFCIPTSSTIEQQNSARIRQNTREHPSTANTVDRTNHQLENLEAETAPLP

In the case of `CCCCCNC1c2ccccc2N(C)S(=O)(=O)c2ccccc21` (stereo not shown) [compound 8, 6-Methyl-11(pentylamino)-6,11-dihydrodibenzo[c,f][1,2]thiazepine 5,5-dioxide], the EC50 (as a rule, the concentration that produces a half-maximal response) in test [1] (BRET G protein activation, HEK-293T, mean ± SEM of independent trials, read-out: EC50 Mouse MOR) was under 10 µM; in test [2], under 10 µM.
Turning to `CCOC(=O)CCCCCCNC1c2ccccc2N(C)S(=O)(=O)c2ccccc21` (stereo not shown) [compound 9, Ethyl 7-((6-methyl-5,5-dioxido-6,11-dihydrodibenzo[c,f][1,2]thiazepin-11-yl)amino)heptanoate], the concentration giving a half-maximal response (EC50) in test [1] and in test [2] was under 10 µM each time.
Compound `CCOC(=O)CCCCCCNC1c2ccccc2N(C)S(=O)(=O)c2cc(I)ccc21` (stereo not shown) [compound 49, Ethyl 7-((3-iodo-6-methyl-5,5-dioxido-6,11-dihydrodibenzo[c,f][1,2]thiazepin-11-yl)amino)heptanoate] gave an EC50 in test [2] of 0.137 ± 0.017 µM.
Still for that read-out and setting: to `COCCCNC1c2ccccc2S(=O)(=O)N(C)c2c(OC)cccc21` (stereo not shown) [compound 50] belongs under 20 µM; to `CCOC(=O)CCCCCCNC1c2ccccc2S(=O)(=O)N(C)c2c(OC)cccc21` (stereo not shown) [compound 51, Ethyl 7-((7-methoxy-6-methyl-5,5-dioxido-6,11-dihydrodibenzo[c,f][1,2]thiazepin-11-yl)amino)heptanoate], under 10 µM.
Compound `CN1c2ccccc2C(NCCCCCCC(N)=O)c2ccc(Cl)cc2S1(=O)=O` (stereo not shown) [compound 52] returned a 50% effective concentration (EC50) in test [2] of under 10 µM.
Regarding `COCCCNC1c2ccccc2N(C)S(=O)(=O)c2cc(Br)ccc21` (stereo not shown) [compound 53, 3-Bromo-11-((3-methoxypropyl)amino)-6-methyl-6,11-dihydrodibenzo[c,f] [1,2]thiazepine 5,5-dioxide], in test [2], the EC50 was found to be 0.0741 ± 0.0179 µM.
Same read-out and setting: to `COCCCNC1c2ccccc2N(C)S(=O)(=O)c2cc(-c3ccccc3)ccc21` (stereo not shown) [compound 56, 11-((3-Methoxypropyl)amino)-6-methyl-3-phenyl-6,11-dihydrodibenzo[c,f][1,2]thiazepine 5,5-dioxide] belongs under 10 µM.
As for `CN1c2ccccc2C(NCCCCCCC(=O)NCCO)c2ccc(Cl)cc2S1(=O)=O` (stereo not shown) [compound 57, 7-((3-Chloro-6-methyl-5,5-dioxido-6,11-dihydrodibenzo [c,f][1,2]thiazepin-11-yl)amino)-N-(2-hydroxyethyl) heptanamide], the EC50 in test [2] is under 10 µM.
The same measure, in the same setting: as for `CN1c2ccccc2C(NCCCCCCC2=NCCO2)c2ccc(Cl)cc2S1(=O)=O` (stereo not shown) [compound 58, 3-Chloro-11-((6-(4,5-dihydrooxazol-2-yl)hexyl)amino)-6-methyl-6,11-dihydrodibenzo[c,f][1,2]thiazepine 5,5-dioxide], the figure is under 10 µM.
On the same count and under the same terms, as for `COCCCNC1c2ccccc2N(C)S(=O)(=O)c2cc(OC(C)=O)ccc21` (stereo not shown) [compound 59, 11-((3-Methoxypropyl)amino)-6-methyl-5,5-dioxido-6,11-dihydrodibenzo[c,f][1,2]thiazepin-3-yl acetate], the figure is under 10 µM.
Still for that read-out and setting: as for `COCCCNC1c2ccccc2N(C)S(=O)(=O)c2ccc(Cl)cc21` (stereo not shown) [compound 60], the figure is under 20 µM; as for `CCOC(=O)CCCCCCNC1c2ccccc2N(C)S(=O)(=O)c2ccc(Cl)cc21` (stereo not shown) [compound 61, Ethyl 7-((2-chloro-6-methyl-5,5-dioxido-6,11-dihydrodibenzo[c,f] [1,2]thiazepin-11-yl)amino)heptanoate], under 10 µM.
Take `CCOC(=O)CCCCCCNC1c2ccccc2S(=O)(=O)N(C)c2c(O)cccc21` (stereo not shown) [compound 62]: the EC50 in test [2] (setting [3]) was over 20 µM.
Compound `COCCCNC1c2ccccc2N(C)S(=O)(=O)c2cc(SC(C)C)ccc21` (stereo not shown) [compound 63, 3-(Isopropylthio)-11-((3-methoxypropyl)amino)-6-methyl-6,11-dihydrodibenzo[c,f][1,2]thiazepine 5,5-dioxide] had an EC50 in test [2] of under 10 µM.
Same read-out and setting: as for `CCSc1ccc2c(c1)S(=O)(=O)N(C)c1ccccc1C2NCCCOC` (stereo not shown) [compound 64, 3-(Ethylthio)-11-((3-methoxypropyl)amino)-6-methyl-6,11-dihydrodibenzo[c,f][1,2]thiazepine 5,5-dioxide], the figure is under 10 µM; as for `CCN1c2ccccc2C(NCCCOC)c2ccccc2S1(=O)=O` (stereo not shown) [compound 65, 6-Ethyl-11-((3-methoxpropyl)amino)-6,11-dihydrodibenzo[c,f][1,2]thiazepine 5,5-dioxide], over 20 µM; as for `CCOC(=O)CCCCCCNC1c2ccccc2N(CC)S(=O)(=O)c2ccccc21` (stereo not shown) [compound 66, Ethyl 7-((6-ethyl-5,5-dioxido-6,11-dihydrodibenzo[c,f][1,2]thiazepin-11-yl)amino)heptanoate], under 10 µM.
In turn, `COCCCNC1c2ccc(Cl)cc2N(C)S(=O)(=O)c2ccccc21` (stereo not shown) [compound 69, 8-Chloro-11-((3-methoxypropyl)amino)-6-methyl-6,11-dihydrodibenzo [c,f][1,2]thiazepine 5,5-dioxide] returned an EC50 in test [2] of under 20 µM.
Same read-out and setting: as for `CCOC(=O)CCCCCCNC1c2ccc(Cl)cc2N(C)S(=O)(=O)c2ccccc21` (stereo not shown) [compound 70, Ethyl 7-((8chloro-6-methyl-5,5-dioxido-6,11-dihydrodibenzo[c,f][1,2]thiazepin-11-yl)amino)heptanoate], the figure is under 10 µM.
On to `CCOCCCNC1c2ccccc2N(C)S(=O)(=O)c2cc(Br)ccc21` (stereo not shown) [compound 71, 3-Bromo-11-((3-ethoxypropyl)amino)-6-methyl-6,11-dihydrodibenzo [c,f][1,2]thiazepine 5,5-dioxide], for which, in test [2] (setting [3]), the EC50 amounted to 0.222 ± 0.078 µM.
As to `COCCCNC1c2ccc(Br)cc2S(=O)(=O)N(C)c2ccsc21` (stereo not shown) [compound 72, 7-Bromo-10-((3-methoxypropyl)amino)-4-methyl-4,10-dihydrobenzo[f]thieno[3,2-c][1,2]thiazepine 5,5-dioxide], the half-maximal effective concentration (EC50) in test [2] was under 10 µM.
In test [2], `CCOCCCNC1c2ccc(Br)cc2S(=O)(=O)N(C)c2ccsc21` (stereo not shown) [compound 73, 7-Bromo-10-((3-ethoxypropyl)amino)-4-methyl-4,10-dihydrobenzo[f]thieno[3,2-c][1,2]thiazepine 5,5-dioxide] gave an EC50 of under 10 µM.
`CCOC(=O)CCCCCCNC1c2ccc(Br)cc2S(=O)(=O)N(C)c2ccsc21` (stereo not shown) [compound 74, Ethyl 7-((7-bromo-4-methyl-5,5-dioxido-4,10-dihydrobenzo[f]thieno[3,2-c][1,2]thiazepin-10-yl)amino)heptanoate] registered an EC50 in test [2] of under 10 µM.
As to `COCCCNC1c2ccccc2N(C)S(=O)(=O)c2cc(OCc3ccccc3)ccc21` (stereo not shown) [compound 75, 3-(Benzyloxy)-11-((3-methoxypropyl)amino)-6-methyl-6,11-dihydrodibenzo[c,f][1,2]thiazepine 5,5-dioxide], in test [2] (setting [3]), the EC50 was over 20 µM.
The compound `CCOCCCNC1c2ccccc2N(C)S(=O)(=O)c2cc(I)ccc21` (stereo not shown) [compound 76, 11-((3-Ethoxypropyl)amino)-3-iodo-6-methyl-6,11-dihydrodibenzo [c,f][1,2]thiazepine 5,5-dioxide] gave an EC50 in test [2] of 0.145 µM.
The same measure, in the same setting: as for `COCCCNC1c2ccc(Cl)cc2S(=O)(=O)N(C)c2ccsc21` (stereo not shown) [compound 77, 7-Chloro-10-((3-methoxypropyl)amino)-4-methyl-4,10-dihydrobenzo[f]thieno[3,2-c][1,2]thiazepine 5,5-dioxide], the figure is under 10 µM; as for `CCOCCCNC1c2ccc(Cl)cc2S(=O)(=O)N(C)c2ccsc21` (stereo not shown) [compound 78, 7-Chloro-10-((-ethoxypropyl)amino)-4-methyl-4,10-dihydrobenzo[f]thieno[3,2-c][1,2]thiazepine 5,5-dioxide], under 10 µM; as for `CCOC(=O)CCCCCCNC1c2ccc(Cl)cc2S(=O)(=O)N(C)c2ccsc21` (stereo not shown) [compound 79, Ethyl 7-((7-chloro-4-methyl-5,5-dioxido-4,10-dihydrobenzo[f]thieno[3,2-c][1,2]thiazepin-10-yl)amino)heptanoate], under 10 µM.
`CCOC(=O)CCCCCCNC1c2ccccc2N(C)S(=O)(=O)c2cc(Br)ccc21` (stereo not shown) [compound 81, Ethyl 7-((3-bromo-6-methyl-5,5-dioxido-6,11-dihydrodibenzo [c,f] [1,2]thiazepin-11-yl)amino)heptanoate] registered a concentration for a half-maximal effect (EC50) in test [2] of 0.573 µM.
The same measure, in the same setting: to `CN1c2ccccc2C(NCCCCCCC(=O)O)c2ccc(Br)cc2S1(=O)=O` (stereo not shown) [compound 82, 7-((3-Bromo-6-methyl-5,5-dioxido-6,11-dihydrodibenzo[c,f][1,2]thiazepin-11-yl)amino)heptanoic acid hydrochloride salt] belongs 0.122 µM; to `CN1c2ccccc2C(NCCCO)c2ccc(Cl)cc2S1(=O)=O` (stereo not shown) [compound 83, 3-Chloro-11-((3-hydroxypropyl)amino)-6-methyl-6,11-dihydrodibenzo[c,f][1,2] iazepine 5,5-dioxide], 1.81 µM.
